# Laboratory results published in patent US10364245B2 (CHIESI FARMACEUTICI S.p.A., priority 2017, dated 2019).
# Where a name gives a salt, the structure may show the parent alone.
# Assays:
# [1] = test system: Peripheral Blood Mononuclear Cells (PBMCs), TNFα release; experiment: LPS-stimulated PBMC TNFα release assay; type: cell-based; conditions: human PBMC, LPS (10 ng/ml), 18 h, compound 1 h before LPS; read-out: LPS-stimulated PBMC TNFα release inhibition
# Experimental: LPS-Stimulated PBMC TNFα Release Assay
# Peripheral Blood Mononuclear Cells (PBMCs) were isolated from healthy human volunteer blood using a standard density gradient centrifugation technique. Citrated blood was placed onto Histopaque™ and centrifuged. The PBMCs were removed from the density gradient interface and washed in phosphate buffered saline (PBS). The PBMCs were suspended in RPMI 1640 medium (without serum), dispensed into a 96-well plate and incubated at 37° C. for 3 h in a humidified incubator. After incubation, the medium was replaced (with medium containing 1% foetal bovine serum) and the plate incubated at 37° C., for 1 h, in the presence of test compound or the appropriate vehicle. LPS (10 ng/ml), or an appropriate vehicle control, was then added to the cells and the plate returned to the incubator for 18 h. Cell-free supernatants were removed and assayed for TNFα levels using MSD plates on the Sector Imager 6000 (MesoScale).
# A dose response curve to each test compound was performed and the effect of compound in each experiment was expressed as a percentage inhibition of the control TNFα release. Dose response curves were plotted and compound potency (IC50) was determined. Compounds were tested in at least three separate experiments.
# [2] = target: T1, p38 alpha (Homo sapiens, UniProt Q16539); experiment: P38 alpha enzyme inhibition assay (Alphascreen kinase activity assay); type: biochemical; conditions: 100 pM p38 alpha, 2 hours preincubation at 25° C., 250 μM ATP, ATF-2 fusion protein; read-out: p38α inhibition
# T1 construct: purchased Invitrogen PV3304
# Experimental: P38 Alpha Enzyme Inhibition Assay
# The inhibitory activity of compounds was determined using an Alphascreen® (Perkin Elmer) based kinase activity assay. Kinase reactions consisted of 25 mM HEPES pH 7.5, 10 mM MgCl2, 100 μM Na3VO4, 2 mM DTT, 0.05 mg/ml Tween 20, 100 pM p38 alpha (Invitrogen, PV3304), 1% DMSO and 0.3 μg/ml ATF-2 fusion protein (New England Biolabs, 9224). Compounds were incubated under these conditions for 2 hours, at 25° C., prior to the initiation of the kinase activity by the addition of the 250 μM ATP. Reaction volumes were 20 μL. After 1 hr at 25° C. reactions were stopped by the adding 10 μL of 25 mM HEPES pH 7.5 containing 62.5 mM EDTA, 0.05% Triton X-100, 10% BSA and 0.83 ng/uL anti-phospho-ATF2 antibody (Abcam, ab28812). Detection was performed by measuring luminescence following the addition of Alphascreen Donor beads (Perkin Elmer 6765300) and Protein A Alphascreen Acceptor beads (Perkin Elmer 6760137), both at a final concentration of 20 ug/ml. IC50 values were determined from concentration-response curves.
# T1 sequence (Q16539 whole entry, the tested form may be a part): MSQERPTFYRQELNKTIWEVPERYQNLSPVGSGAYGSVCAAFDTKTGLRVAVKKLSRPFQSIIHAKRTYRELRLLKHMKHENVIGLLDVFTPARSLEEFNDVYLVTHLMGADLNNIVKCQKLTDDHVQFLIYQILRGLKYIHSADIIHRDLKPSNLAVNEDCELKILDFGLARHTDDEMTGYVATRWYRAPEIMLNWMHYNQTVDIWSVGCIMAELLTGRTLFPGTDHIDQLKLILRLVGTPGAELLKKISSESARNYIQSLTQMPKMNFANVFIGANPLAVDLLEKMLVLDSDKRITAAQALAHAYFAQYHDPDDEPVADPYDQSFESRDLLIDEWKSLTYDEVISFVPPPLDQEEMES
IC50 [2] [nM],Compound,IC50 [1] [nM]
< 1,"CN(C)CCNC(=O)c1nc(NC(=O)N[C@H]2CC[C@@H](Oc3ccc4nnc(C(C)(C)C)n4c3)c3ccccc32)cc(C(C)(C)C)n1 [Example 1, 4-(tert-Butyl)-6-(3-((1S,4R)-4-((3-(tert-butyl)-[1,2,4]triazolo[4,3-a]pyridin-6-yl)oxy)-1,2,3,4-tetrahydronaphthalen-1-yl)ureido)-N-(2-(dimethylamino)ethyl)-pyrimidine-2-carboxamide]",1 to 5
< 1,"CCC(C)(C)c1nnc2ccc(O[C@@H]3CC[C@H](NC(=O)Nc4cc(C(C)(C)C)nc(C(=O)NCCN(C)CCO)n4)c4ccccc43)cn12 [Example 2, 4-(tert-Butyl)-N-(2-((2-hydroxyethyl)(methyl)amino)ethyl)-6-(3-((1S,4R)-4-((3-(tert-pentyl)-[1,2,4]triazolo[4,3-a]pyridin-6-yl)oxy)-1,2,3,4-tetrahydronaphthalen-1-yl)ureido)pyrimidine-2-carboxamide]",1 to 5
< 1,"CCC(C)(C)c1nnc2ccc(O[C@@H]3CC[C@H](NC(=O)Nc4cc(C(C)(C)C)nc(C(=O)NCCN(C)C)n4)c4ccccc43)cn12 [Example 3, 4-(tert-Butyl)-N-(2-(dimethylamino)ethyl)-6-(3-((1S,4R)-4-((3-(tert-pentyl)-[1,2,4]triazolo[4,3-a]pyridin-6-yl)oxy)-1,2,3,4-tetrahydronaphthalen-1-yl)ureido)pyrimidine-2-carboxamide]",1 to 5
< 1,CCC(C)(C)c1nnc2ccc(O[C@@H]3CC[C@H](NC(=O)Nc4cc(C(C)(C)C)nc(C(=O)NCCN(C)CCOC)n4)c4ccccc43)cn12 [Example 4],1 to 5
< 1,"CCC(CC)c1nnc2ccc(O[C@@H]3CC[C@H](NC(=O)Nc4cc(C(C)(C)C)nc(C(=O)NCCN(C)C)n4)c4ccccc43)cn12 [Example 5, 4-(tert-Butyl)-N-(2-(dimethylamino)ethyl)-6-(3-((1S,4R)-4-((3-(pentan-3-yl)-[1,2,4]triazolo[4,3-a]pyridin-6-yl)oxy)-1,2,3,4-tetrahydronaphthalen-1-yl)ureido)pyrimidine-2-carboxamide]",1 to 5
< 1,"CCC(CC)c1nnc2ccc(O[C@@H]3CC[C@H](NC(=O)Nc4cc(C(C)(C)C)nc(C(=O)NCCN5CC(OC)C5)n4)c4ccccc43)cn12 [Example 6, 4-(tert-Butyl)-N-(2-(3-methoxyazetidin-1-yl)ethyl)-6-(3-((1S,4R)-4-((3-(pentan-3-yl)-[1,2,4]triazolo[4,3-a]pyridin-6-yl)oxy)-1,2,3,4-tetrahydronaphthalen-1-yl)ureido)pyrimidine-2-carboxamide]",1 to 5
–,"CN1CCN(c2nc(NC(=O)N[C@H]3CC[C@@H](Oc4ccc5nnc([C@]6(C)CCCN6C)n5c4)c4ccccc43)cc(C(C)(C)C)n2)CC1 [Example 31, 1-(6-(tert-Butyl)-2-(4-methylpiperazin-1-yl)pyrimidin-4-yl)-3-((1S,4R)-4-((3-((S)-1,2-dimethylpyrrolidin-2-yl)-[1,2,4]triazolo[4,3-a]pyridin-6-yl)oxy)-1,2,3,4-tetrahydronaphthalen-1-yl)urea]",> 5
1 to 10,"COC1CN(CCNC(=O)c2nc(NC(=O)N[C@H]3CC[C@@H](Oc4ccc5nnc(C(C)(C)OC)n5c4)c4ccccc43)cc(C(C)(C)C)n2)C1 [Example 167, 4-(tert-butyl)-N-(2-(3-methoxyazetidin-1-yl)ethyl)-6-(3-((1S,4R)-4-((3-(2-methoxypropan-2-yl)-[1,2,4]triazolo[4,3-a]pyridin-6-yl)oxy)-1,2,3,4-tetrahydronaphthalen-1-yl)ureido)pyrimidine-2-carboxamide]",–
1 to 10,"CCC(CC)(CNC(=O)c1nc(NC(=O)N[C@H]2CC[C@@H](Oc3ccc4nnc(C(C)(C)C)n4c3)c3ccccc32)cc(C(C)(C)C)n1)N(C)C [Example 168, 4-(tert-butyl)-6-(3-((1S,4R)-4-((3-(tert-butyl)-[1,2,4]triazolo[4,3-a]pyridin-6-yl)oxy)-1,2,3,4-tetrahydronaphthalen-1-yl)ureido)-N-(2-(dimethylamino)-2-ethylbutyl)pyrimidine-2-carboxamide]",–
1 to 10,"COC1CN(C(C)(C)CNC(=O)c2nc(NC(=O)N[C@H]3CC[C@@H](Oc4ccc5nnc(C(C)(C)C)n5c4)c4ccccc43)cc(C(C)(C)C)n2)C1 [Example 170, 4-(tert-butyl)-6-(3-((1S,4R)-4-((3-(tert-butyl)-[1,2,4]triazolo[4,3-a]pyridin-6-yl)oxy)-1,2,3,4-tetrahydronaphthalen-1-yl)ureido)-N-(2-(3-methoxyazetidin-1-yl)-2-methylpropyl)pyrimidine-2-carboxamide]",–
1 to 10,"COC1CN(C(C)(C)CNC(=O)c2nc(NC(=O)N[C@H]3CC[C@@H](Oc4ccc5nnc(C(C)(C)OC)n5c4)c4ccccc43)cc(C(C)(C)C)n2)C1 [Example 172, 4-(tert-butyl)-N-(2-(3-methoxyazetidin-1-yl)-2-rnethylpropyl)-6-(3-((1S,4R)-4-((3-(2-methoxypropan-2-yl)-[1,2,4]triazolo[4,3-a]pyridin-6-yl)oxy)-1,2,3,4-tetrahydronaphthalen-1-yl)ureido)pyrimidine-2-carboxamide]",–
1 to 10,"COCCN(C)C(C)(C)CNC(=O)c1nc(NC(=O)N[C@H]2CC[C@@H](Oc3ccc4nnc(C(C)(C)C)n4c3)c3ccccc32)cc(C(C)(C)C)n1 [Example 177, 4-(tert-butyl)-6-(3-((1S,4R)-4-((3-(tert-butyl)-[1,2,4]triazolo[4,3-a]pyridin-6-yl)oxy)-1,2,3,4-tetrahydronaphthalen-1-yl)ureido)-N-(2-((2-methoxyethyl)(methyl)-amino)-2-methylpropyl)pyrimidine-2-carboxamide]",–
1 to 10,"CCOC(C)(C)c1nnc2ccc(O[C@@H]3CC[C@H](NC(=O)Nc4cc(C(C)(C)C)nc(C(=O)NCCN(C)C)n4)c4ccccc43)cn12 [Example 180, 4-(tert-Butyl)-N-(2-(dimethylamino)ethyl)-6-(3-((1S,4R)-4-((3-(2-ethoxypropan-2-yl)-[1,2,4]triazolo[4,3-a]pyridin-6-yl)oxy)-1,2,3,4-tetrahydronaphthalen-1-yl)ureido)pyrimidine-2-carboxamide formate salt]",–
1 to 10,"COC(C)(C)c1nnc2ccc(O[C@@H]3CC[C@H](NC(=O)Nc4cc(C(=O)NCCN(C)C)nc(C(C)(C)C)c4)c4ccccc43)cn12 [Example 185, 6-(tert-butyl)-N-(2-(dimethylamino)ethyl)-4-(3-((1S,4R)-4-((3-(2-methoxypropan-2-yl)-[1,2,4]triazolo[4,3-a]pyridin-6-yl)oxy)-1,2,3,4-tetrahydronaphthalen-1-yl)ureido)picolinamide]",–
1 to 10,"COC(C)(C)c1nnc2ccc(O[C@@H]3CC[C@H](NC(=O)Nc4cc(C(=O)NCC(C)(C)N(C)C)nc(C(C)(C)C)c4)c4ccccc43)cn12 [Example 194, 6-(tert-butyl)-N-(2-(dimethylamino)-2-methylpropyl)-4-(3-((1S,4R)-4-((3-(2-methoxypropan-2-yl)-[1,2,4]triazolo[4,3-a]pyridin-6-yl)oxy)-1,2,3,4-tetrahydronaphthalen-1-yl)ureido)picolinamide]",–
1 to 10,"COC1CCN(CCNC(=O)c2cc(NC(=O)N[C@H]3CC[C@@H](Oc4ccc5nnc(C(C)(C)C)n5c4)c4ccccc43)cc(C(C)(C)C)n2)CC1 [Example 203, 6-(tert-butyl)-4-(3-((1S,4R)-4-((3-(tert-butyl)-[1,2,4]triazolo[4,3-a]pyridin-6-yl)oxy)-1,2,3,4-tetrahydronaphthalen-1-yl)ureido)-N-(2-(4-methoxypiperidin-1-yl)ethyl)picolinamide]",–

Compound,IC50 [2] [nM],IC50 [1] [nM]
"COCCN(C)C(C)(C)CNC(=O)c1nc(NC(=O)N[C@H]2CC[C@@H](Oc3ccc4nnc(C(C)(C)OC)n4c3)c3ccccc32)cc(C(C)(C)C)n1 [Example 179, 4-(tert-butyl)-N-(2-((2-methoxyethyl)(methyl)amino)-2-methylmpropyl)-6-(3-((1S,4R)-4-((3-(2-methoxypropan-2-yl)-[1,2,4]triazolo[4,3-a]pyridin-6-yl)oxy)-1,2,3,4-tetrahydronaphthalen-1-yl)ureido)pyrimidine-2-carboxamide]",1 to 10,–
